In patent US9554576B2, “Tetrazolinone compounds and their use as pesticides” (SUMITOMO CHEMICAL COMPANY, LIMITED, priority 2012, dated 2017):

System: wheat rust fungi (Puccinia recondita)
Test: Comparative Test Example: wheat rust foliar spray test
Format: in vivo
Conditions: wheat (cv; Shirogane), 500 ppm foliar spray, inoculated after 5 days
Method: The spores of wheat rust fungi (Puccinia recondita) were sprinkling-inoculated. After inoculation, the plants were placed under a dark and humid condition at 23° C. for 1 day and were then cultivated at 20° C. under lighting for 8 days and a lesion area was observed.

## Cc1cc(C)n(-c2ccc(OCc3ccccc3-n3nnn(C)c3=O)c(Cl)c2)n1 [control compound, 1-{2-[2-chloro-4-(3,5-dimethyl-pyrazol-1-yl)-phenoxymethyl]-phenyl}-4-methyl-1,4-dihydrotetrazole-5-one]
  lesion area compared to the lesion area in untreated plants: ≥ 70%
